Experimental data as given in ChEMBL document CHEMBL1201862, “PubChem BioAssay data set” (2004).
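Cultured in 96-well plates, cells were exposed to test compound for 48 hours across five concentrations. The concentration for 50% growth inhibition is given as GI50.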 Active and inactive are the calls of the source. Rule as the data show it: active = GI50 up to about 1.1 µM and inactive = higher.

What was measured:
Assay in all cases: NCI tumour cell line growth inhibition, 48 h
[1] = tested on: 786-0
[2] = tested on: A498
[3] = tested on: A549
[4] = tested on: ACHN
[5] = tested on: CAKI-1
[6] = tested on: COLO 205
[7] = tested on: DLD-1
[8] = tested on: DMS-114
[9] = tested on: DMS-273
[10] = tested on: EKVX
[11] = tested on: HCC 2998
[12] = tested on: HCT-116
[13] = tested on: HL-60
[14] = tested on: HOP-18
[15] = tested on: HOP-62
[16] = tested on: HOP-92
[17] = tested on: HT-29
[18] = tested on: IGROV-1
[19] = tested on: K562
[20] = tested on: KM-20L2
[21] = tested on: KM12
[22] = tested on: LOX IMVI
[23] = tested on: LXFL 529
[24] = tested on: M14
[25] = tested on: M19-MEL
[26] = tested on: MOLT-4
[27] = tested on: Malme-3M
[28] = tested on: NCI-H226
[29] = tested on: NCI-H23
[30] = tested on: NCI-H460
[31] = tested on: NCI-H522
[32] = tested on: OVCAR-3
[33] = tested on: OVCAR-4
[34] = tested on: OVCAR-5
[35] = tested on: OVCAR-8
[36] = tested on: RPMI-8226
[37] = tested on: RXF 393
[38] = tested on: SF-268
[39] = tested on: SF-295
[40] = tested on: SF-539
[41] = tested on: SK-MEL-28
[42] = tested on: SK-OV-3
[43] = tested on: SN12C
[44] = tested on: SNB-19
[45] = tested on: SNB-75
[46] = tested on: SNB-78
[47] = tested on: SR
[48] = tested on: SW-620
[49] = tested on: TK-10
[50] = tested on: U-251
[51] = tested on: UACC-257
[52] = tested on: UACC-62
[53] = tested on: UO-31
[54] = tested on: XF498
[55] = tested on: CCRF-CEM
[56] = tested on: SK-MEL-2
[57] = tested on: SK-MEL-5

Measured: GI50

CCOC(=O)C(CCC(N)=O)(CCC(=O)OC)C(=O)OCC
inactive: [1] > 100 µM | [2] > 100 µM | [3] > 100 µM | [4] > 100 µM | [5] > 100 µM | [6] > 100 µM | [7] > 100 µM | [8] > 100 µM | [9] > 100 µM | [10] > 100 µM | [11] > 100 µM | [12] > 100 µM | [13] > 100 µM | [14] > 100 µM | [15] > 100 µM | [16] > 100 µM | [17] > 100 µM | [18] > 100 µM | [19] > 100 µM | [20] > 100 µM | [21] > 100 µM | [22] > 100 µM | [23] > 100 µM | [24] > 100 µM | [25] > 100 µM | [26] > 100 µM | [27] > 100 µM | [28] > 100 µM | [29] > 100 µM | [30] > 100 µM | [31] > 100 µM | [32] > 100 µM | [33] > 100 µM | [34] > 100 µM | [35] > 100 µM | [36] > 100 µM | [37] > 100 µM | [38] > 100 µM | [39] > 100 µM | [40] > 100 µM | [41] > 100 µM | [42] > 100 µM | [43] > 100 µM | [44] > 100 µM | [45] > 100 µM | [46] > 100 µM | [47] > 100 µM | [48] > 100 µM | [49] > 100 µM | [50] > 100 µM | [51] > 100 µM | [52] > 100 µM | [53] > 100 µM | [54] > 100 µM

COc1cc(OC)c(Oc2cccc(OC)c2OC)c(OC)c1
inactive: [1] > 100 µM | [2] > 100 µM | [3] > 100 µM | [4] > 100 µM | [5] > 100 µM | [55] > 100 µM | [6] > 100 µM | [7] > 100 µM | [8] > 100 µM | [9] > 100 µM | [10] > 100 µM | [11] > 100 µM | [12] > 100 µM | [14] 29.5 µM | [15] > 100 µM | [16] > 100 µM | [17] > 100 µM | [18] > 100 µM | [19] > 100 µM | [20] > 100 µM | [21] > 100 µM | [22] > 100 µM | [23] > 100 µM | [24] > 100 µM | [25] > 100 µM | [26] > 100 µM | [28] > 100 µM | [29] > 100 µM | [30] > 100 µM | [31] > 100 µM | [32] > 100 µM | [33] > 100 µM | [34] > 100 µM | [35] > 100 µM | [38] > 100 µM | [39] > 100 µM | [40] > 100 µM | [41] > 100 µM | [56] > 100 µM | [57] > 100 µM | [42] > 100 µM | [43] > 100 µM | [44] 32.1 µM | [45] > 100 µM | [46] > 100 µM | [47] > 100 µM | [48] > 100 µM | [49] > 100 µM | [50] > 100 µM | [51] > 100 µM | [52] > 100 µM | [53] > 100 µM | [54] > 100 µM
